From patent US5336485A, “Method for protecting animals against tacrine induced cytotoxic injury using sterol compounds” (priority 1993, dated 1994)
Structures can show the parent of a compound that is named as a salt.

Assays:
[1] = system: liver; test: Partial liver ischemia/reperfusion-induced injury in rats; format: in vivo, rat
Experimental: 20 hours prior to global occlusion, one group of 10 rats was provided with 64 mg cholesterol/kg body weight and 100 mg tris succinate/kg body weight by i.p. injection, and another group of 10 rats was provided with 100 mg cholesteryl succinate/kg body weight. A control group of rats was only partially occluded for the one hour period. Ninety percent of the rats pretreated with cholesteryl succinate tris salt survived while only 10% of those pretreated with the combination of cholesterol and tris succinate survived. Table 22 of a partial ischemia study where male Sprague-Dawley rats were subjected to occlusion of the blood supply to the left lateral and median lobes of the liver for 60 minutes followed by reperfusion for 24 hours. During this time, the normal blood supply to the other lobes of the liver was maintained. […] Serum was obtained for AST and ALT measurements.
^a Partial liver ischemia was induced in male Sprague Dawley rats

[2] = system: rat hepatocytes; test: Cellular alpha-tocopherol and tocopherol ester content of rat hepatocytes; conditions: for Hepatocyte Concentration Alpha-T / Hepatocyte Concentration Alpha-TS: EMS 3 h
Experimental: At each time-point, rapid separation of viable from non-viable hepatocytes and medium was accomplished by the dibutyl phthalate centrifugation method. Cell viability was monitored hourly by measuring LDH leakage with a Cobas Analyzer and intracellular [K^+ ]with a flame photometer. LDH was routinely measured in the medium while intracellular K^+ was measured in the 10% perchloric acid lysate of viable cells. Lipid peroxidation was determined by measuring TBA reactants in the medium. […] The samples were diluted with 0.3 ml 1% ascorbate in 0.1 M SDS, 0.4 ml ethanol, sonicated and extracted once with 0.8 ml hexane. Next, the hexane extract was evaporated to dryness with N2, the residue dissolved in 2.5% ascorbate in methanol (1 ml) and analyzed (100 μl) by high-performance liquid chromatograph (HPLC). […] The mobile phase, 95% MeOH was run isocratically and the HPLC retention times for delta and alpha-tocopherol were approximately eleven and sixteen minutes, respectively. […] Following the addition of 0.2 ml 4 M HC1, the neutralized KOH-MeOH extracted with 0.8 ml hexane. […] A standard curve for each tocopherol congener was run with every assay. […] Only viable cells were monitored in the laboratory procedures.
The hepatocytes were subsequently exposed to 50mM EMS for three hours.

[3] = Tissue distribution of alpha-tocopherol and alpha-tocopherol ester in rats; format: in vivo, rat
[4] = system: mouse melanoma cells B-16; conditions: cited from earlier work
[5] = system: L1210 leukemia cells; test: Doxorubicin in L1210 leukemia bearing CDF1 mice; format: in vivo, mouse; conditions: alpha-TS tris salt 100 mg/kg ip
Experimental: The experiments were conducted in accordance with NCI Protocol 1,100. FIGS. 8a-d show the experimental results obtained when male CDF1 mice (n=6) received either vehicle only or 100mg/kg body weight i.p. dose of either alpha-TS or cholesteryl succinate 20 hours prior to DOX administration. FIGS. 8a-d respectively show the results obtained when the mice received 10, 15, 20, and 25 mg DOX/kg body weight. […] FIGS. 9a-d show the experimental results obtained when male CDF1 mice ([…]) were injected (i.p.) with 10^6 murine L1210 leukemia cells followed immediately by an injection of alpha-TS tris salt (100 mg/kg, i.p.) or saline injection (vehicle), and twenty hours later (Day=0) each mouse in three of the groups was i.p. injected with 15, 20, or 25 mg DOX/kg body weight ([…]). Survival was monitored for twenty days.

[6] = Blood alpha-TS content after oral dosing in humans; format: in vivo, human; conditions: 400 units per day, one month, three males
Description: In a one month study with three human males aging from 35 to 62 years 400 units of alpha-tocopheryl succinate were taken per day. Subsequent blood samples were taken from each individual and analyzed for alpha-T and alpha-TS content. […] However, in select individuals, as determined possibly by ethnic origin or diet, tissue alpha-TS accumulation can occur with oral dosing. The absence of alpha-TS hydrolysis in the gut of the one individual in the study who had substantial amounts of alpha-TS in plasma may be attributed to the absence of duodenal secretions after oral alpha-TS administration (lack of dietary fats to stimulate duodenal secretions at the time of alpha-TS administration).

[7] = 100 mg/kg ip, 20 hours prior to ischemia
[8] = 50 mM EMS + 25 μM alpha-TS + 100 μM Bis-(p-nitrophenyl) phosphate
[9] = 50 mM EMS + 25 μM alpha-TS + 100 μM Diethyl p-nitrophenyl phosphate
[10] = (b) ip, peanut oil and ETOH, 1 dose 100 mg/kg, 24 h
[11] = (e) iv, liposomes, 1 dose 100 mg/kg, 24 h
[12] = (f) ip, olive oil, 7 daily doses

Question: For `CC(C)CCC[C@@H](C)[C@H]1CC[C@H]2[C@@H]3CC=C4C[C@@H](OC(=O)CCC(=O)O)CC[C@]4(C)[C@H]3CC[C@]12C` [Cholesteryl Succinate tris salt], which ALT ([1]; 25 mg/kg ip, vehicle 1027±235) is on record?
Answer: Its ALT is 358±38.

Question: What about the ALT [1, 7] of the same molecule?
Answer: The ALT was 554 ± 213 Units/L.

Question: What about the AST [1, 7] of the same molecule?
Answer: Its AST is 1800 ± 904 Units/L.

Question: What about the ALT ([1]; 100 mg/kg ip, during ischemia) of the same molecule?
Answer: The ALT was 387 ± 155 Units/L.

Question: And the AST ([1]; 100 mg/kg ip, during ischemia)?
Answer: Its AST is 967 ± 68 Units/L.

Question: And the “protection in fed and fasted rats” value ([1]; rat, in vivo)?
Answer: Its value is “Protection was observed for both fed and fasted rats”.

Question: For `Cc1c(C)c2c(c(C)c1OC(=O)CCC(=O)O)CC[C@@](C)(CCC[C@H](C)CCC[C@H](C)CCCC(C)C)O2` [alpha-TS, d-alpha-tocopheryl succinate], which “cellular alpha-TS content” value ([2]; 0.5 μM) is on record?
Answer: The value was “approximately 0.025 nmoles/10^6 cells”.

Question: What about the “Hepatocyte Concentration Alpha-T” value ([2]; 2.0 μM) of the same molecule?
Answer: The value was 0.4 ± 0.1 nmol/10^6 cells.

Question: What about the “Hepatocyte Concentration Alpha-TS” value ([2]; 2.0 μM) of the same molecule?
Answer: The value was 0.2 ± 0.1 nmol/10^6 cells.

Question: What about the “Hepatocyte Concentration Alpha-T” value ([2]; 10 μM) of the same molecule?
Answer: The value was 0.8 ± 0.1 nmol/10^6 cells.

Question: And the “Hepatocyte Concentration Alpha-TS” value ([2]; 10 μM)?
Answer: The value was 0.7 ± 0.1 nmol/10^6 cells.

Question: What about the “cellular accumulation rate of alpha-TS” value ([2]; 25 μM dose) of the same molecule?
Answer: The value was 1.65 nmol/10^6 cells/hr.

Question: And the “cellular release rate of succinate (as measured by alpha-tocopherol release)” value ([2]; 25 μM dose)?
Answer: The value was 0.65 nmol/10^6 cells/hr.

Question: And the “Hepatocyte Concentration Alpha-T” value ([2]; 25 μM)?
Answer: The value was 0.9 ± 0.1 nmol/10^6 cells.

Question: What about the “Hepatocyte Concentration Alpha-TS” value ([2]; 25 μM) of the same molecule?
Answer: The value was 2.5 ± 0.1 nmol/10^6 cells.

Question: And the “Cellular Tocopherol ester” value ([2]; 25 μM, Table 2)?
Answer: The value was 2.6 nmoles/10^6 cells.

Question: What about the “Cellular alpha-T” value ([2]; 25 μM, Table 2) of the same molecule?
Answer: Its value is 0.7 nmoles/10^6 cells.

Question: And the “Hepatocyte Concentration Alpha-T” value ([2]; 250 μM)?
Answer: Its value is 0.9 ± 0.1 nmol/10^6 cells.

Question: What about the “Hepatocyte Concentration Alpha-TS” value ([2]; 250 μM) of the same molecule?
Answer: The value was 7.6 ± 1.7 nmol/10^6 cells.

Question: And the “Cellular alpha-T” value ([2]; 50 mM EMS + 25 μM alpha-TS)?
Answer: The value was “.81 ± .05 nmoles/10^6 cells”.

Question: What about the “Cellular alpha-TS” value ([2]; 50 mM EMS + 25 μM alpha-TS) of the same molecule?
Answer: The value was 2.73 ± .67 nmoles/10^6 cells.

Question: And the “Cellular alpha-T” value [2, 8]?
Answer: The value was “.20 ± .05 nmoles/10^6 cells”.

Question: What about the “Cellular alpha-TS” value [2, 8] of the same molecule?
Answer: Its value is 2.61 ± .61 nmoles/10^6 cells.

Question: And the “Cellular alpha-T” value [2, 9]?
Answer: The value was “.19 ± .05 nmoles/10^6 cells”.

Question: And the “Cellular alpha-TS” value [2, 9]?
Answer: Its value is 2.56 ± .24 nmoles/10^6 cells.

Question: And the “Hepatocyte Concentration Alpha-T” value ([2]; .5 μM)?
Answer: The value was 0.2 ± 0.1 nmol/10^6 cells.

Question: What about the “Liver Concentration Ester” value ([3]; 100 mg/kg ip, 24 h) of the same molecule?
Answer: Its value is 119 ± 16 nmol/g.

Question: And the “alpha-TS, Blood” value [3, 10]?
Answer: The value was 7 nmoles/gm of Tissue.

Question: And the “alpha-TS, Heart” value [3, 10]?
Answer: The value was 47 nmoles/gm of Tissue.

Question: And the “alpha-TS, Kidney” value [3, 10]?
Answer: Its value is 31 nmoles/gm of Tissue.

Question: What about the “alpha-TS, Liver” value [3, 10] of the same molecule?
Answer: The value was 119 nmoles/gm of Tissue.

Question: And the “alpha-TS, Lung” value [3, 10]?
Answer: The value was 90 nmoles/gm of Tissue.

Question: And the “alpha-TS, Plasma” value [3, 10]?
Answer: The value was 8 nmoles/gm of Tissue.

Question: And the “alpha-TS, Blood” value [3, 11]?
Answer: The value was 6 nmoles/gm of Tissue.

Question: What about the “alpha-TS, Heart” value [3, 11] of the same molecule?
Answer: The value was 10 nmoles/gm of Tissue.

Question: What about the “alpha-TS, Liver” value [3, 11] of the same molecule?
Answer: Its value is 322 nmoles/gm of Tissue.

Question: What about the “alpha-TS, Lung” value [3, 11] of the same molecule?
Answer: Its value is 4843 nmoles/gm of Tissue.

Question: And the “alpha-TS, Plasma” value [3, 11]?
Answer: Its value is 5 nmoles/gm of Tissue.

Question: What about the “alpha-TS, Blood” value [3, 12] of the same molecule?
Answer: Its value is 15 nmoles/gm of Tissue.

Question: What about the “alpha-TS, Brain” value [3, 12] of the same molecule?
Answer: Its value is 6 nmoles/gm of Tissue.

Question: And the “alpha-TS, Heart” value [3, 12]?
Answer: The value was 34 nmoles/gm of Tissue.

Question: And the “alpha-TS, Kidney” value [3, 12]?
Answer: The value was 44 nmoles/gm of Tissue.

Question: What about the “alpha-TS, Liver” value [3, 12] of the same molecule?
Answer: Its value is 161 nmoles/gm of Tissue.

Question: And the “alpha-TS, Lung” value [3, 12]?
Answer: The value was 128 nmoles/gm of Tissue.

Question: What about the “accumulation of hepatic alpha-TS” value ([3]; oral) of the same molecule?
Answer: The value was “elimination of both the accumulation of hepatic alpha-TS and protection against CCl4 lethality”.

Question: And the tumor cell growth ([4]; 10 μM)?
Answer: The tumor cell growth was “inhibits tumor cell growth”.

Question: And the morphological differentiation [4]?
Answer: The morphological differentiation was “induce morphological differentiation”.

Question: What about the “survival of DOX treated tumor bearing mice (FIG. 9b)” value ([5]; DOX 10 mg/kg) of the same molecule?
Answer: The value was “no effect on the survival of DOX treated animals”.

Question: What about the “survival of tumor bearing mice at higher DOX” value ([5]; DOX 15 and 25 mg/kg) of the same molecule?
Answer: Its value is “significant protection from DOX”.

Question: What about the “alpha-TS in plasma and erythrocytes” value [6] of the same molecule?
Answer: Its value is “Substantial amounts of alpha-TS in plasma and erythrocytes were observed for only one individual”.
